# Results reported in patent US5093127A, “Preparation of FR115224 substrate for parenteral administration” (Fujisawa Pharmaceutical Co., Ltd., priority 1989, dated 1992).
# Numbered stars: 1 amine (or outer) side, 2 acyl side, 3 side chain; on linkers, the order of the positions; unused ones are H or OH. Bridge positions count the residues as written; N and C are the ends. Square brackets hold non-standard residues; d marks the D form. Peptide text beside a SMILES is read from it. * marks the point of attachment. X2 = CN(/C(=C/c1ccc(O)cc1)C(=O)[*:2])[*:1]; aThr = C[C@H](O)[C@H](N)C(=O)O; X1 = CCCCCc1ccccc1CCC(=O)*
# Key:
# [1] = Solubility test of FR115224 substance in water with cyclodextrins; type: physicochemical; settings: for Solubility of FR115224 substance: distilled water, room temperature
# Method: FR115224 substance (125 mg) was charged in 13 sample bottles, respectively and distilled water (2.5 ml) was added thereto.
# Then, α-cyclodextrin, β-cyclodextrin, hydroxypropyl β-cyclodextrin or γ-cyclodextrin was charged to each of the sample bottles in amounts of […] (cyclodextrin content: 0.16% w/v), 2.5 mg (cyclodextrin content: 1% w/v) or 12.5 mg (cyclodextrin content: 5% w/v), respectively. No cyclodextrin was charged in one sample bottle, which was made control. After stirring at room temperature for 12 hours, the concentration of FR115224 substance in each aqueous phase was measured to determine the solubility of FR115224 substance.
# [2] = 20° C.; cited from earlier work
Effect of cyclodextrin on the solubility of FR115224 substance in water ([1]; conclusion from Table 1),"Solubility of FR115224 substance ([1]; no cyclodextrin (0 % w/v, control), stirred 12 hours)","Solubility of FR115224 substance ([1]; hydroxypropyl β-cyclodextrin 0.16 % w/v, 12 hours)","Solubility of FR115224 substance ([1]; hydroxypropyl β-cyclodextrin 1 % w/v, 12 hours)","Solubility of FR115224 substance ([1]; hydroxypropyl β-cyclodextrin 5 % w/v, 12 hours)","Solubility of FR115224 substance ([1]; α-cyclodextrin 0.16 % w/v, 12 hours)","Solubility of FR115224 substance ([1]; α-cyclodextrin 1 % w/v, 12 hours)","Solubility of FR115224 substance ([1]; α-cyclodextrin 5 % w/v, 12 hours)","Solubility of FR115224 substance ([1]; β-cyclodextrin 0.16 % w/v, 12 hours)","Solubility of FR115224 substance ([1]; β-cyclodextrin 1 % w/v, 12 hours)","Solubility of FR115224 substance ([1]; β-cyclodextrin 5 % w/v, 12 hours)","Solubility of FR115224 substance ([1]; γ-cyclodextrin 0.16 % w/v, 12 hours)","Solubility of FR115224 substance ([1]; γ-cyclodextrin 1 % w/v, 12 hours)","Solubility of FR115224 substance ([1]; γ-cyclodextrin 5 % w/v, 12 hours)",SMILES,Increase of water solubility by inclusion compound with β-cyclodextrin [2]
markedly increase,0.003 % w/v,0.009 % w/v,0.06 % w/v,0.49 % w/v,0.008 % w/v,0.03 % w/v,0.14 % w/v,0.013 % w/v,0.11 % w/v,0.34 % w/v,0.006 % w/v,0.03 % w/v,0.16 % w/v,CCCCCc1ccccc1CCC(=O)N[C@@H]1C(=O)N(C)/C(=C/c2ccc(O)cc2)C(=O)N[C@@H](CC(C)C)C(=O)N[C@H](Cc2ccccc2)C(=O)N[C@@H]([C@H](C)O)C(=O)N[C@@H](CC(N)=O)C(=O)N[C@@H](CO)C(=O)O[C@@H]1C [FR115224 substance] (X1-T[X2]L[dF][aThr]NS; ester 1-C),–
–,–,–,–,–,–,–,–,–,–,–,–,–,–,C(=C\c1ccccc1)/CN1CCN(C(c2ccccc2)c2ccccc2)CC1 [Cinnarizine],about 5 times
